# Laboratory results taken from patent publication US20250129096A1, “ANNULATED 2-AMINO-3-CYANO THIOPHENES AND DERIVATIVES FOR THE TREATMENT OF CANCER” (Boehringer Ingelheim Int'l GmbH Corp., priority 2021, published 2025).
# Legend:
# [1] = test system: SK-CO-1 cells (CRC, G12V); test: SK-CO-1 CTG proliferation assay (120 h); assay type: cell-based; settings: Homo sapiens, CellTiter-Glo
# Protocol: SK—CO-1 cells (ATCC HTB-39) are dispensed into 384-well plates, flat and clear bottom (Greiner, PNr. 781091) at a density of 500 cells per well in 60 μL EMEM (Sigma M5650)+10% Fetal Calf Serum (HyClone, PNr.: SH30084.03) and incubated at 37° C. in a CO2 incubator overnight. The next day, compounds (10 mM stock in DMSO) are added with the ECHO acoustic liquid handler system (Beckman Coulter), including DMSO controls. Plates are incubated for 120 h, and cell viability is measured using CellTiter-Glo luminescent cell viability reagent (Promega product code G7570). Viability (stated as percent of control) is defined as relative luminescence units RLU of each well divided by the RLU of cells in DMSO controls. IC50 values are determined from viability measurements by non-linear regression using a four-parameter model.
# [2] = test system: NCI-H2122 cells (NSCLC, G12C); test: NCI-H2122 CTG proliferation assay (120 h); assay type: cell-based; settings: Homo sapiens, CellTiter-Glo
# Protocol: The CTG assay is designed to measure quantitatively the proliferation of NCI-H2122 cells (ATCC CRL-5985), using the CellTiter Glow Assay Kit (Promega G7571). Cells are grown in RPMI medium (ATCC) supplemented with Fetal Calf Serum (Life Technologies, Gibco BRL, Cat. No. 10270-106). On “day 0” 200 NCI-H2122 cells are seeded in 60 μL RPMI ATCC+10% FCS+ Penstrep in a black 384-well plate, flat and clear bottom (Greiner, PNr. 781091). Cells are then incubated in the plates at 37° C. in a CO2 incubator overnight. On day 1, compounds (10 mM stock in DMSO) are added with the ECHO acoustic liquid handler system (Beckman Coulter), including DMSO controls. Plates are incubated for 120 h, and cell viability is measured using CellTiter-Glo luminescent cell viability reagent (Promega product code G7570). Viability (stated as percent of control) is defined as relative luminescence units RLU of each well divided by the RLU of cells in DMSO controls. IC50 values are determined from viability measurements by non-linear regression using a four-parameter model.
# [3] = biological target: T1, KRAS (G12D)::SOS1 (Homo sapiens, UniProt P01116, G12D); test: KRAS::SOS1 AlphaScreen binding assay, KRAS G12D
# T1 construct: KRAS (G12D) 1-169, N-terminal 6His-tag, C-terminal avi-tag; 6His-tag (N); purchased Xtal BioStructures, Inc. (KRAS G12D); Viva Biotech Ltd (SOS1)
# Protocol: Low IC50 values in this assay setting are indicative of strong inhibition of protein-protein interaction between SOS1 and KRAS:
# These assays measure the inhibitory effect of compounds on KRAS mutant protein-protein interactions using the Alpha Screen technology by Perkin Elmer.
# For the chosen highest assay concentration of 100 μM, 150 nL of compound solution are transferred from a 10 mM DMSO compound stock solution. A series of eleven fivefold dilutions per compound are transferred to the assay plate, compound dilutions are tested in duplicates. DMSO are added as backfill to a total volume of 150 nL.
# The assays run on a fully automated robotic system in a darkened room below 100 Lux. To 150 nl of compound dilution 10 μl of a mix including KRAS mutant protein, SOS1 (final assay concentrations see above) and GDP nucleotide (Sigma G7127; final assay concentration 10 μM) in assay buffer (1×PBS, 0.1% BSA, 0.05% Tween 20) are added into columns 1-24. After 30 minutes incubation time 5 μl of Alpha Screen bead mix in assay buffer are added into columns 1-23.
# Plates are kept at room temperature in a darkened incubator. After an additional 60 minutes incubation time the signal is measured in a PerkinElmer Envision HTS Multilabel Reader using the AlphaScreen specs from PerkinElmer.
# IC50 values are calculated and analyzed with Boehringer Ingelheim's MEGALAB IC50 application using a 4 parametric logistic model.
# [4] = biological target: KRAS G12C Ba/F3 cells (Homo sapiens, UniProt P01116, G12C, cells depend on it); test: Ba/F3 proliferation assay, KRAS G12C; assay type: cell-based; settings: 72 h, AlamarBlue; read-out: KRAS G12C Ba/F3 IC50
# Protocol: (§1) To generate KRASG12-dependent Ba/F3 models, Ba/F3 cells are transduced with retroviruses containing vectors that harbor KRASG12 isoforms. Platinum-E cells (Cell Biolabs) are used for retrovirus packaging. Retrovirus is added to Ba/F3 cells. To ensure infection, 4 μg/mL polybrene is added and cells are spinfected. […] Cells with an infection efficiency of 10% to 20% are further cultivated and puromycin selection with 1 μg/mL is initiated. As a control, parental Ba/F3 cells are used to show selection status. Selection is considered successful when parental Ba/F3 cells cultures died. To evaluate the transforming potential of KRASG12 mutations, the growth medium is no longer supplemented with IL-3. Ba/F3 cells harboring the empty vector are used as a control. Approximately ten days before conducting the experiments, puromycin is left out. […] All treatments are performed in technical duplicates. […] AlamarBlue™(ThermoFisher), a viability stain, is added and fluorescence measured in the PerkinElmer Envision HTS Multilabel Reader. The raw data are imported into and analyzed with the Boehringer Ingelheim proprietary software MegaLab (curve fitting based on the program PRISM, GraphPad Inc.).
# [5] = biological target: KRAS G12D Ba/F3 cells (Homo sapiens, UniProt P01116, G12D, cells depend on it); test: Ba/F3 proliferation assay, KRAS G12D; assay type: cell-based; settings: 72 h, AlamarBlue; read-out: KRAS G12D Ba/F3 IC50
# Protocol: as §1
# [6] = biological target: KRAS G12V Ba/F3 cells (Homo sapiens, UniProt P01116, G12V, cells depend on it); test: Ba/F3 proliferation assay, KRAS G12V; assay type: cell-based; settings: 72 h, AlamarBlue; read-out: KRAS G12V Ba/F3 IC50
# Protocol: as §1
# T1 sequence (P01116 1-169 isoform P01116-2 G12D): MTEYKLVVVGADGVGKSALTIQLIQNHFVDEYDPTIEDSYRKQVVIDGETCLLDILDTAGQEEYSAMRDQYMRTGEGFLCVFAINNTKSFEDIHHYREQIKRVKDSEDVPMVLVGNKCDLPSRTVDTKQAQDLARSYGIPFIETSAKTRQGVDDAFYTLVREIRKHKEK
# Sequence of KRAS G12V Ba/F3 cells (P01116 whole entry G12V): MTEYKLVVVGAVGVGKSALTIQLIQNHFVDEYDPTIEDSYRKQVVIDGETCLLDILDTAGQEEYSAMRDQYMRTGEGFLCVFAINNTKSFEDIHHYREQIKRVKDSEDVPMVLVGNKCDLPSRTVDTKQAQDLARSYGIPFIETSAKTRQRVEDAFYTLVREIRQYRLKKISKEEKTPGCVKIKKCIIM
# Sequence of KRAS G12D Ba/F3 cells (P01116 whole entry G12D): as the sequence (P01116 whole entry G12V) above, with V12D counted along it
# Sequence of KRAS G12C Ba/F3 cells (P01116 whole entry G12C, canonical isoform): as the sequence (P01116 whole entry G12V) above, with V12C counted along it
Structure (SMILES),IC50 [1] [nM],IC50 [2] [nM],IC50 [3] [nM],GI50 [4] [nM],GI50 [5] [nM],GI50 [6] [nM]
"C[C@H]1CNCCCN1c1nccc(-c2noc3c2CCC[C@@]32CCCc3sc(N)c(C#N)c32)n1 (single isomer, unassigned) [IIb-5]",563,6360,3,88,32,–
C[C@H]1CNCCCN1c1nccc(-c2noc3c2CSCC32CCCc3sc(N)c(C#N)c32)n1 (some centres unmarked) [IIb-4],2390,4020,13,485,174,138
C[C@H]1CNCCCN1c1nccc(-c2noc3c2OCCC32CCCc3sc(N)c(C#N)c32)n1 (some centres unmarked) [IIb-7],455,1940,2,131,123,136
C[C@H](Oc1nccc(-c2noc3c2CCC[C@@]32CCCc3sc(N)c(C#N)c32)n1)[C@@]1(C)CCCN1C [IIe-1],1030,6380,4,254,155,203
C[C@H]1CNCCN1c1nccc(-c2noc3c2CCC[C@@]32CCCc3sc(N)c(C#N)c32)n1 [IIf-1],600,2860,–,–,–,–
C[C@@H]1NCCCN(c2nccc(-c3onc4c3CCC[C@@]43CCCc4sc(N)c(C#N)c43)n2)[C@H]1C [Ib-2],457,8350,5,126,101,–
C[C@H]1[C@@H]2CCCN2CCCN1c1nccc(-c2onc3c2CCC[C@@]32CCCc3sc(N)c(C#N)c32)n1 [Id-1],4680,9460,1,42,27,–
CO[C@@H]1C[C@@H]([C@H](C)Oc2nccc(-c3onc4c3CCC[C@@]43CCCc4sc(N)c(C#N)c43)n2)N(C)C1 [Ie-1],2520,1500,2,43,28,29
C[C@H](Oc1nccc(-c2onc3c2CCC[C@@]32CCCc3sc(N)c(C#N)c32)n1)[C@@H]1C[C@@H](F)CN1C [Ie-2],1040,1620,2,155,66,106
C[C@H]1CNCCCN1c1nccc(-c2onc3c2CCC[C@@]32CCCc3sc(N)c(C#N)c32)n1 [If-1],2730,10700,5,134,77,98

# The remaining compounds from weak to strong by IC50 [1], led by results:
IC50 [1] [nM],IC50 [2] [nM],IC50 [3] [nM],GI50 [4] [nM],GI50 [5] [nM],GI50 [6] [nM],Structure (SMILES)
7920,> 25000,6,8510,4670,–,C[C@H](Oc1nccc(-c2onc3c2CCC[C@@]32CCCc3sc(N)c(C#N)c32)n1)[C@@H]1C[C@@H]2C[C@@H]2N1 [If-2]
6240,4850,21,507,798,478,C[C@H]1CNCCCN1c1nccc(-c2noc3c2CC(F)(F)CC32CCCc3sc(N)c(C#N)c32)n1 (some centres unmarked) [IIb-2]
2690,3920,31,666,469,337,CC1Cc2c(-c3ccnc(N4CCCNC[C@@H]4C)n3)noc2C2(CCCc3sc(N)c(C#N)c32)C1 (some centres unmarked) [IIb-1]
930,> 25000,4,295,211,–,C[C@H]1CNCCCN1c1ncnc(-c2onc3c2CCC[C@@]32CCCc3sc(N)c(C#N)c32)n1 [Ib-4]
817,5260,3,49,33,84,CCN1[C@H]2C[C@H]2C[C@H]1[C@H](C)Oc1nccc(-c2onc3c2CCC[C@@]32CCCc3sc(N)c(C#N)c32)n1 [Ie-3]
798,1220,4,118,66,92,CC(Oc1nccc(-c2onc3c2CCC[C@@]32CCCc3sc(N)c(C#N)c32)n1)C12CCCN1CCC2 (some centres unmarked) [Ie-5]
398,7810,4,72,43,94,C[C@H](Oc1nccc(-c2onc3c2CCC[C@@]32CCCc3sc(N)c(C#N)c32)n1)[C@@H]1C[C@@H]2C[C@@H]2N1C [Ih-1]
285,–,2,23,16,25,C[C@H](Oc1ccnc(-c2noc3c2CCC[C@@]32CCCc3sc(N)c(C#N)c32)n1)[C@@H]1CCCN1C [IIb-3]
